Assay results taken from publication PMC11768370, “Etodolac Single Dose Metabolic Profile Elucidation: Pharmacokinetics and Adverse Events in Healthy Volunteers” (Pharmaceuticals, 2025).
Several values for one entry are separate records, joined by “and”; a condition that tells them apart may be missing. Equal entries are not always repeated. Where two headings read alike, the source gives them in different places.

Experiment: Etodolac pharmacokinetic profile after a single dose, plasma LC-MS/MS, non-compartmental
Format: in vivo, human
Method: The analytical method used to calculate the pharmacokinetic parameters was validated according to Resolution No. 27/2012 of the Agência Nacional de Vigilância Sanitária (ANVISA). In this study, an LC-MS/MS system was used to quantify ETO. Chromatographic separations were performed using an LC-20AD analytical pump (Shimadzu, Kyoto, Japan) and a SIL-20A HT autosampler (Shimadzu, Kyoto, Japan), coupled to a Quattro Micro (Micromass, Newcastle, UK) system for triple quadrupole mass spectrometry analyses with an electrospray ionization (ESI) source (Waters, Newcastle, UK). The targeted analysis for ETO was detected by a multiple reaction monitoring (MRM) transition of 286 > 242, and mefenamic acid (Internal Standard) was detected by an MRM transition of 240 > 196 in negative acquisition mode. Data were collected using MassLynx 4.1 (Waters, Newcastle, UK). Further information on the validation method can be found in Supplementary Materials and Methods. WinNonLin 8.3 software (Pharsight, New Jersey, USA) was used to calculate pharmacokinetic parameters using non-compartmental statistics. […]
Table S3. Pharmacokinetics parameters. Pharmacokinetics parameters were calculated for each participant using the concentration across time data. […]
1. Volunteers and Study Design
The present study was nested in a single-dose, open-label, randomized pharmaco-bioequivalence study performed under biosafety and ethical standards. The reference formulation was an etodolac controlled-release coated tablet of 500 mg Flancox® with the administration of one single-dose tablet.
The volunteers were hospitalized at 7:00 p.m. and had supper before 9:00 p.m. After an overnight fast, a speciﬁc high-calorie diet was administered 30 minutes before taking the medication. They received (at ∼7:00 a.m.) a tablet of 500 mg of etodolac with 200 mL of water. Lunch: 4 hours after taking the medication. Afternoon snack: 8 hours after taking the medication. Dinner: 10 hours after […]
At 2 h before and 6, 8, and 12 h after the dose administration, vital signs were checked. The […] period was 24 h, during which period, blood samples (5 mL) from a suitable antecubital vein were collected, post-dosing via an indwelling catheter, into ethylenediaminetetraacetic acid […]
for 10 min at 4°C, and the plasma was stored at -70°C until assayed. Samples were handled under yellow light due to the photosensitivity of the drug.
2. Determination of Pharmacokinetic Proﬁle by LC-MS/MS
Chromatographic separations were performed in an LC-20AD analytical pump and SIL-20A HT autosampler from Shimadzu. The stationary phase employed an Agilent Polaris 5 µm C18-A 50 x […]
2,0mm column (Phenomenex). The mobile phase consisted of a solution of acetonitrile and 5 mM ammonium acetate, ﬂowing at 0.3 mL/min in proportion (8:2). The autosampler was maintained at 22°C, with an injection volume of 5 µl and 2.5-minute duration. Mass spectrometry was conducted on a Quattro Micro mass spectrometer from Micromass, equipped with an electrospray ionization (ESI) source. While operating in negative ionization mode with nitrogen as the desolvation gas, ESI source parameters were set as follows: source temperature of 100°C, desolvation temperature of 450°C, desolvation ﬂow of 800 L h-1, and capillary voltage of 3,50 kV. Etodolac was detected by a multiple reaction monitoring (MRM) transition of 286 > 242 using a cone voltage of 30 eV, and mefenamic acid was detected by an MRM transition of 240 > 196 using a cone voltage of 30 eV. Data was acquired using MassLynx 4.1.
2.1. Preparation of Standards and Quality Controls
Etodolac stock solution (108.5 µg/mL) was prepared in methanol and diluted with H2O to obtain the corrected stock solution (100 µg/mL) for the spiking calibration curve and quality controls (QC) samples. QC samples were prepared in the following levels: low, 0,6 µg/mL (LQC); medium, 50 µg/mL (MQC); high, 75 ug/mL (HQC); and a dilution, 42.5 µg/mL (DQC), calculated by taking the […]

[1] = Maximum of 37 participants, single dose 500 mg
[2] = Minimum of 37 participants, single dose 500 mg
[3] = individual participants P1-P37, single dose 500 mg

## CCc1cccc2c3c([nH]c12)C(CC)(CC(=O)O)OCC3 (stereo not shown) [Etodolac]
[1]
  AUC0-t: 480.52 µg·h/mL
  Cmax: 59070 ng/mL
  Kel: 0.15 h⁻¹
  T1/2: 20.09 h
  Tmax: 5.00 h
[2]
  AUC0-t: 94.14 µg·h/mL
  Cmax: 18690 ng/mL
  Kel: 0.035 h⁻¹
  T1/2: 4.76 h
  Tmax: 0.75 h
Both sexes, human, oral, 500 mg, Mean of 37 participants, single dose 500 mg, read-out: AUC0-t
  AUC0-t: 203 µg·h/mL
Both sexes, human, oral, 500 mg, Mean of 37 participants, single dose 500 mg, read-out: Cmax
  Cmax: 35500 ng/mL
Both sexes, human, oral, 500 mg, Mean of 37 participants, single dose 500 mg, read-out: Kel (converted)
  k el: 2.5e-05 s⁻¹
Both sexes, human, oral, 500 mg, Mean of 37 participants, single dose 500 mg, read-out: T1/2 (converted)
  half-life: 8.2 h
Both sexes, human, oral, 500 mg, Mean of 37 participants, single dose 500 mg, read-out: Tmax
  Tmax: 2.24 h
Both sexes, human, oral, 500 mg, overall mean (SD), 37 healthy volunteers, single dose Flancox 500 mg tablet after high-calorie diet, read-out: elimination rate constant (Kel) (converted)
  k el: 2.5e-05 s⁻¹
Both sexes, human, oral, 500 mg, overall mean (SD), 37 healthy volunteers, single dose Flancox 500 mg tablet after high-calorie diet, read-out: half-life (T1/2) (converted)
  half-life: 8.2 h
Both sexes, human, oral, 500 mg, overall mean (SD), 37 healthy volunteers, single dose Flancox 500 mg tablet after high-calorie diet, read-out: maximum concentration (Cmax)
  Cmax: 35500 ng/mL
Both sexes, human, oral, 500 mg, overall mean (SD), 37 healthy volunteers, single dose Flancox 500 mg tablet after high-calorie diet, read-out: time to maximum concentration (Tmax)
  Tmax: 2.24 h
Both sexes, human, oral, overall mean (SD), 37 healthy volunteers, single dose Flancox 500 mg tablet after high-calorie diet, read-out: area under the curve from time zero to time t (AUC0-t)
  AUC0-t: 203 µg·h/mL
[3]
  Cmax: 45680 ng/mL
  Tmax: 2.25 h and 2.75 h and 1.50 h and 3.00 h and 1.25 h and 3.67 h and 4.00 h and 3.33 h and 2.50 h and 1.00 h and 2.00 h and 1.75 h and 5.00 h and 0.75 h
